Measured values reported in patent EP0093643A1 (priority 1982, dated 1983).

How the values were obtained:
sécrétion gastrique = assay: Pentagastrin-stimulated gastric hypersecretion in dogs with a Heidenhain pouch; type: in vivo, chien; conditions: Canis lupus familiaris, po, voie orale, dog, pentagastrin infusion, dose reducing hourly acid output by 50 %, doses expressed as base, read-out: DE50 (the source's name)
Description: L'activité inhibitrice de la sécrétion gastrique du composé de l'exemple 1 a été comparée à celle du racémique correspondant à l'aide du test d'hypersécrétion gastrique stimulée par la pentagastrine chez le chien porteur d'une poche de Heidenhein.
Trois chiens "mongrels", porteurs d'une poche de Heidenhein, à jeun depuis 18 heures, reçoivent pendant 4 heures, par perfusion veineuse, […]/kg/heure de pentagastrine sous un volume de 30 ml/heure. La sécrétion de la poche est recueillie dans un flacon qui est changé toutes les 15 minutes. Une heure et demie après le début de la perfusion, le produit à étudier est administré par voie orale dans une gélule n° 000. La dose efficace 50 % (DE 50) eet la dose de produit qui diminue de 50 % le débit acide horaire enregistré pendant la 3ème ou 4ème heure de l'expérimentation par rapport au débit acide horaire enregistré lors de la deuxième heure do la perfusion.
Les résultats obtenus sont rassemblés dans le tableau ci-après, où les dosas sont exprimées en produit sous forme de base : […]

[1] = test system: récepteurs muscariniques de l'acétylcholine; type: binding, rat; conditions: compared with quinupramine; from IC50 of 3H-QNB displacement

Structure (SMILES) | ED50 (sécrétion gastrique) [mg/kg] | activity relative to the corresponding racemate [1]
CN(C)S(=O)(=O)c1ccc2c(c1)N(C1CN3CCC1CC3)c1ccccc1S2 (racemic) [racémique correspondant, reference compound] | 1 | 
CN(C)S(=O)(=O)c1ccc2c(c1)N([C@@H]1CN3CCC1CC3)c1ccccc1S2 [Exemple 1, N,N-diméthyl [aza-1 bicyclo(2,2,2)octyl-3(S)] - 10 10 H-phénothiazinesulfonamide-2] | 0.7 | 
c1ccc2c(c1)CCc1ccccc1N2[C@@H]1CN2CCC1CC2 [Exemple 2, [aza-1 bicyclo(2,2,2)octyl-3 (S)]-5 dihydro-10,11 5H-dibenz (b,f) azépine] |  | deux fois plus actif
